PubChem BioAssay (NCI)
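Dose response: 5 concentrations. Exposure: 48 h. Format: 96-well plates. Endpoint: linear interpolation; highest concentration if not reached. The concentration for full growth arrest is given as TGI.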

Key:
Test in all cases: growth of human tumour cells (NCI), 48 h
CAKI-1 renal = tested on: CAKI-1 renal
RXF 393 renal = tested on: RXF 393 renal
SK-MEL-2 melanoma = tested on: SK-MEL-2 melanoma
OVCAR-3 ovarian = tested on: OVCAR-3 ovarian
HT29 colon = tested on: HT29 colon
KM12 colon = tested on: KM12 colon
OVCAR-8 ovarian = tested on: OVCAR-8 ovarian
SK-MEL-28 melanoma = tested on: SK-MEL-28 melanoma
TK-10 renal = tested on: TK-10 renal
LOX IMVI melanoma = tested on: LOX IMVI melanoma
NCI/ADR-RES ovarian = tested on: NCI/ADR-RES ovarian
SK-MEL-5 melanoma = tested on: SK-MEL-5 melanoma
HCT-15 colon = tested on: HCT-15 colon
SF-295 CNS = tested on: SF-295 CNS
EKVX NSCLC = tested on: EKVX NSCLC
MCF7 breast = tested on: MCF7 breast
SK-OV-3 ovarian = tested on: SK-OV-3 ovarian
HCC-2998 colon = tested on: HCC-2998 colon
K-562 leukemia = tested on: K-562 leukemia
SNB-19 CNS = tested on: SNB-19 CNS
HOP-62 NSCLC = tested on: HOP-62 NSCLC
CCRF-CEM leukemia = tested on: CCRF-CEM leukemia
SF-268 CNS = tested on: SF-268 CNS
SW-620 colon = tested on: SW-620 colon
MALME-3M melanoma = tested on: MALME-3M melanoma
MOLT-4 leukemia = tested on: MOLT-4 leukemia
COLO 205 colon = tested on: COLO 205 colon
RPMI-8226 leukemia = tested on: RPMI-8226 leukemia
HOP-92 NSCLC = tested on: HOP-92 NSCLC
OVCAR-4 ovarian = tested on: OVCAR-4 ovarian
M14 melanoma = tested on: M14 melanoma
786-0 renal = tested on: 786-0 renal
NCI-H522 lung = tested on: NCI-H522 lung
UACC-62 melanoma = tested on: UACC-62 melanoma
U251 CNS = tested on: U251 CNS
DU-145 prostate = tested on: DU-145 prostate
HL-60(TB) leukemia = tested on: HL-60(TB) leukemia
NCI-H460 lung = tested on: NCI-H460 lung
ACHN renal = tested on: ACHN renal
UACC-257 melanoma = tested on: UACC-257 melanoma
HCT-116 colon = tested on: HCT-116 colon
MDA-N = tested on: MDA-N
OVCAR-5 ovarian = tested on: OVCAR-5 ovarian
HS 578T breast = tested on: HS 578T breast
T-47D breast = tested on: T-47D breast
MDA-MB-435 = tested on: MDA-MB-435
SNB-75 CNS = tested on: SNB-75 CNS
NCI-H23 lung = tested on: NCI-H23 lung
PC-3 prostate = tested on: PC-3 prostate
UO-31 renal = tested on: UO-31 renal
A498 renal = tested on: A498 renal
SR leukemia = tested on: SR leukemia
SF-539 CNS = tested on: SF-539 CNS
IGROV1 ovarian = tested on: IGROV1 ovarian
A549 NSCLC = tested on: A549 NSCLC

Structure (SMILES): CN1CCN(c2nc3ccccc3nc2C(=O)c2ccc(Cl)cc2)CC1
- TGI (CAKI-1 renal): > 100 µM
- TGI (RXF 393 renal): 77.3 µM
- TGI (SK-MEL-2 melanoma): > 100 µM
- TGI (OVCAR-3 ovarian): > 100 µM
- TGI (HT29 colon): > 100 µM
- TGI (KM12 colon): > 100 µM
- TGI (OVCAR-8 ovarian): > 100 µM
- TGI (SK-MEL-28 melanoma): > 100 µM
- TGI (TK-10 renal): > 100 µM
- TGI (LOX IMVI melanoma): > 100 µM
- TGI (NCI/ADR-RES ovarian): > 100 µM
- TGI (SK-MEL-5 melanoma): 52.7 µM
- TGI (HCT-15 colon): > 100 µM
- TGI (SF-295 CNS): > 100 µM
- TGI (EKVX NSCLC): > 100 µM
- TGI (MCF7 breast): > 100 µM
- TGI (SK-OV-3 ovarian): > 100 µM
- TGI (HCC-2998 colon): 99.7 µM
- TGI (K-562 leukemia): > 100 µM
- TGI (SNB-19 CNS): > 100 µM
- TGI (HOP-62 NSCLC): > 100 µM
- TGI (CCRF-CEM leukemia): > 100 µM
- TGI (SF-268 CNS): > 100 µM
- TGI (SW-620 colon): > 100 µM
- TGI (MALME-3M melanoma): 48.1 µM
- TGI (MOLT-4 leukemia): > 100 µM
- TGI (COLO 205 colon): > 100 µM
- TGI (RPMI-8226 leukemia): 77.4 µM
- TGI (HOP-92 NSCLC): > 100 µM
- TGI (OVCAR-4 ovarian): > 100 µM
- TGI (M14 melanoma): 62.8 µM
- TGI (786-0 renal): > 100 µM
- TGI (NCI-H522 lung): > 100 µM
- TGI (UACC-62 melanoma): 76.2 µM
- TGI (U251 CNS): > 100 µM
- TGI (DU-145 prostate): > 100 µM
- TGI (HL-60(TB) leukemia): 98 µM
- TGI (NCI-H460 lung): 80.2 µM
- TGI (ACHN renal): > 100 µM
- TGI (UACC-257 melanoma): > 100 µM
- TGI (HCT-116 colon): > 100 µM
- TGI (MDA-N): > 100 µM
- TGI (OVCAR-5 ovarian): > 100 µM
- TGI (HS 578T breast): > 100 µM
- TGI (T-47D breast): > 100 µM
- TGI (MDA-MB-435): > 100 µM
- TGI (SNB-75 CNS): > 100 µM
- TGI (NCI-H23 lung): > 100 µM
- TGI (PC-3 prostate): > 100 µM
- TGI (UO-31 renal): > 100 µM
- TGI (A498 renal): > 100 µM
- TGI (SR leukemia): > 100 µM
- TGI (SF-539 CNS): > 100 µM
- TGI (IGROV1 ovarian): > 100 µM
- TGI (A549 NSCLC): > 100 µM
